Assay results as given in patent US7678390B2, “Carbon monoxide as a biomarker and therapeutic agent” (priority 1999, dated 2010).

System: RAW 264.7 macrophages
Test: LPS-induced cytokine production in macrophages (ELISA, Western)
Type: cell-based, mouse
Conditions: for TNF-α: RAW 264.7 macrophages
Text: Animals. Male C57BL/6 and IL-10 (−/−) mice were purchased from Jackson Laboratory (Bar Harbor, Me.), and allowed to acclimate for one week with rodent chow and water ad libitum. The MKK (−/−) mice were generated as previously described [Lu, et al., EMBO J. 18:1845-1857 (1999)]. Wild type littermates were used as controls. All animals were housed in accordance with guidelines from the American Association for Laboratory Animal Care and Research Protocols and were approved by the Animal Care and Use Committee of Yale University School of Medicine. Reagents. All reagents were purchased from Sigma Chemical Co. (St Louis, Mo.) unless specified otherwise. Plasmid Construct. Plasmid pSFFV/HO-1 was constructed by insertion of the rat HO-1 cDNA [Shibahara, et al., Proc. Natl. Acad. Sci. USA. 82: 7865-7869 (1985)] downstream of the Friend spleen focus-forming virus 5′ long-terminal repeat in the mammalian expression vector pSFFV/neo [Fuhlbrigge, et al, Proc. Natl. Acad. Sci. USA. 85: 5649-5653 (1988)] (kindly provided by Stanley Korsmeyer). Transfection. Stable transfections were carried out by the calcium phosphate precipitation technique as previously described [Alam, J., J. Biol. Chem. 269: 25049-25056 (1994)]. Briefly, RAW cells were plated (1×10^6/10 cm plate) and 16 h later, transfected with […] of pSFFV/neo or pSFFV/HO-1. Cells were exposed to the DNA-CaPO4 precipitate for 6 h, shocked by a 1 min treatment with glycerol in phosphate-buffered saline and cultured for an additional 24 h in complete medium before addition of G418. Transfectants were selected over a 3-week period in the presence of G418 (up to […]) and individual clones were isolated by limited dilution. Cell Culture Experimentation. RAW 264.7 mouse peritoneal macrophages were purchased from […] (Rockville, Md.) and primary culture of rat pulmonary vascular smooth muscle cells were harvested from male Sprague Dawley rats (250-300 g) as previously described [Gunther, et al., J. Cell. Biol. 92: 289-298 (1982).]. Both cell types were grown in DMEM containing 10% FBS and gentamicin ([…]) in a humidified atmosphere of 5% CO2/balanced air or 250 ppm CO/5% CO2/balanced air. After a 2 h pretreatment with either CO or air, LPS ([…]) or sterile saline was added to the culture media and the culture plates were returned to the chamber(s). At various time points, cell plates were removed from the chamber to collect media and/or cells for Western analysis. CO Exposures. Mice or macrophages were exposed to compressed air or 250 ppm CO. For cell culture experiments, 5% CO2 was also present for buffering requirements. CO at a concentration of 1% (10,000 ppm) in compressed air was mixed with compressed air with or without CO2 in a stainless steel mixing cylinder before delivery into the exposure chamber. Flow into the 3.70-ft^2 plexiglass animal chamber was maintained at 12 L/min and into the 1.2 ft^2 cell culture chamber at a flow of 2 L/min. The cell culture chamber was humidified and maintained at 37° C. A CO analyzer (Interscan, Chatsworth, Calif.) was used to measure CO levels continuously in the chambers. Gas samples were taken by the analyzer through a port in the top of the chambers at a rate of 1 L/min and analyzed by electrochemical detection, with a sensitivity of 10-600 ppm. Concentration levels were measured hourly and there were no fluctuations in the CO concentrations once the chamber had equilibrated (approximately 5 min). Animal Experimentation. Mice were prebled from the retroorbital sinus (0.25 ml) and then exposed to CO (250 ppm) or room air for 1 h prior to administration of LPS (1 mg/kg, i.p.), E. coli serotype O127:B8. 1 and 16 h thereafter, they were removed from the exposure apparatus individually and a blood sample was obtained via the retroorbital sinus. After the blood collection, the mice were immediately returned to the exposure chamber. […]

**Q.** Which results are given for `Nc1nc2c(nc(Br)n2[C@@H]2O[C@@H]3COP(=O)(O)O[C@H]3[C@H]2O)c(=O)[nH]1` [8-Br-cGMP, reference compound]?
**A.** TNF-α (with LPS): 530 ± 35 pg/mL; TNF-α (without LPS): 18 ± 6 pg/mL; effect on LPS-induced TNF-α production (added to macrophage culture followed by LPS): no effect
